This note sets out measurements from US20130172248A1, “3-[4-(PHENYLAMINOOXALYLAMINO)PHENYL]HEX-4-YNOIC ACIDS, PROCESS FOR PREPARATION THEREOF AND USE THEREOF AS A MEDICAMENT” (priority 2012, published 2013).

One assay concerns human S1P1 receptor. In words: Determination of S1P1 receptor activation (intracellular calcium release, FLIPR, CHO cells). The format is cell-based. The settings on record: compound at 10 μM; in percent of activation by 100 nM S1P. On the procedure: Determination of S1P1 Receptor Activation
The activation of the S1P1 receptor by the chemical compounds described in the present invention disclosure was determined via the S1P1 receptor-mediated release of intracellular calcium.
The CHO (chinese hamster ovarian) cells used here was stably overexpressed with the human S1P1 receptor (Flp-In System, Invitrogen). In order to amplify the signal transduction of the receptor in the direction of a cellular calcium response, a receptor modified at the C terminus was used, which contained the sequence of a modified G protein (Gαi4qi4) (WO 02/04665). The changes in intracellular calcium were determined by means of the calcium-sensitive fluorescent dye Fluo-4 (Invitrogen) in an appropriate plate reader (FLIPR, […]).
To prepare the measurement, the cells were sown in 96-well plates (Becton Dickinson, Biocoat cellware, poly-D-lysine coated, #354640) with 40 000 cells per cavity between 18 and 24 hours before the calcium measurement. For the intervening period, the cells were cultivated in an incubator under 95% air humidity with 5% CO2 gas in a medium based on F-12 Glutamax (Gibco #31765), which was additionally supplemented with 1% (vol/vol) penicillin/streptomycin (PAN, #P06-07100), 10% (vol/vol) fetal calf serum (Hyclone charcoal/dextran treated FBS #SH30068) and Hygromycin B (final concentration 300 mg/l; Invitrogen, #10687-010).
For calcium measurement, the cells were laden beforehand with the acetoxymethyl ester derivative of the Fluo-4 dye (Fluo-4 AM, Invitrogen, #F14202) for 60 min. During the loading, which took place in the incubator under the conditions specified above, the cells were incubated with an HBSS buffer (Hanks' Balanced Salt Solution; Invitrogen #14065049) which had been supplemented with Fluo-4 AM (acetoxymethyl ester of Fluo-4; 2 μM; all figures are based on final concentrations), Pluronic® F-127 (0.05% vol/vol; Invitrogen, #P-3000 MP), HEPES (20 mM; Gibco #15630), probenecid (2.5 mM; Sigma #P-8761) and bovine serum albumin (0.05%; Sigma #A-6003). This buffer was finally adjusted to a pH of 7.5 with sodium hydroxide.
During the loading with Fluo-4, the acetoxymethyl ester is cleaved by intracellular esterases, and so there is intracellular accumulation of the dye. The loading of the cells was ended by washing three times (Tecan, Power Washer) with a wash buffer.
The wash buffer was also used for the later fluorescence-based calcium measurement. In this case, the laden and washed cells were stimulated with the compounds described (dissolved in DMSO; maximum final DMSO concentration 0.3%) in different concentrations. […]
All measurements were conducted as triplicates, and the individual values thereof were averaged for further calculation. The percentage activation of the S1P1 receptor, which was caused in some cases by the compounds described, was calculated using the S1P-related calcium response (positive control). Before this calculation, a background correction took place, by subtracting the value of the base control (DMSO control) from all other fluorescence values detected.
Using the specific cellular fluorescence response at different concentrations of the compounds used, concentrations were calculated at which the cell response was at half maximum (EC50 value). […] Here too, the percentage activation of the receptor was calculated using the positive control (S1P, 100 nM) and base control (DMSO control).
A general note: Calcium assays in cells follow changes in intracellular calcium, usually with a dye or a luminescent sensor.

Another assay deals with T1, GPCR GPR40 (human) (Homo sapiens, UniProt O14842).
T1 construct: expressed in transfected cells; host or cells: HEK293
In words: In vitro FLIPR assay with recombinant HEK293 cells which express the GPCR GPR40 (intracellular Ca2+). To be noted: recombinant HEK293 cells expressing human GPR40; 100% = 10 μM linoleic acid reference agonist; read-out: hGPR40 EC50. It counts as cell-based. On the procedure:
In Vitro FLIPR Assay with Recombinant Cells which Express the GPCR GPR40
Function-testing assays were performed by means of the FLIPR technique (“Fluorescence Imaging Plate Reader”, Molecular Devices Corp.). For this purpose, agonist-induced changes were determined in the intracellular concentration of Ca^2+ in recombinant HEK293 cells which expressed the GPCR GPR40 (human).
For the studies, cells were sown into 96-well microtiter plates (60 000 cells/well) and left to grow overnight. The medium was removed and the cells were incubated in buffer which contained the fluorescent dye Fluo-4. After this loading with dye, the cells were washed, test substance was added and changes were measured in the intracellular Ca^2+ concentration in the FLIPR instrument. Results were presented as the percentage change relative to the control (0%: no test substance added; 100%: 10 μM linoleic acid reference agonist added) and used for calculation of dose/efficacy curves, and the EC50 values were thus determined. The mean effective concentration (EC50) is the dose at which a half-maximum effect is observed.

T1 sequence (O14842 whole entry): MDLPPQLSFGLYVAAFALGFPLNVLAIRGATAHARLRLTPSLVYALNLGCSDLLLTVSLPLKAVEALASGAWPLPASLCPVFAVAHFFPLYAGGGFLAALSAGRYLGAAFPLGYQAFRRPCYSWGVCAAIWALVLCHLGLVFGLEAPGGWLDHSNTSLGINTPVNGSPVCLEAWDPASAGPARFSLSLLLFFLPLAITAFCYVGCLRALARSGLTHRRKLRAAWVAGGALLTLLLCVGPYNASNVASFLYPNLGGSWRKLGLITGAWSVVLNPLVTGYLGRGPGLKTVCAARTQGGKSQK

With `CC#C[C@@H](CC(=O)O)c1ccc(NC(=O)C(=O)Nc2cc(C(F)(F)F)ccc2C(F)(F)F)cc1` [Example 1, (S)-3-{4-[(2,5-bis(trifluoromethyl)phenylaminooxalyl)amino]phenyl}hex-4-ynoic acid], the “S1P1 receptor activation, % activation” value with human S1P1 receptor was 0%. In addition, at GPCR GPR40 (human), the EC50 came out at 0.4 nM.
In the case of `CC#C[C@@H](CC(=O)O)c1ccc(NC(=O)C(=O)Nc2cccc(C(C)(C)C)c2)cc1` [Example 2, (S)-3-{4-[(3-tert-butylphenylaminooxalyl)amino]phenyl}hex-4-ynoic acid], the “S1P1 receptor activation, % activation” value in the assay on human S1P1 receptor was 1%. The half-maximal effective concentration (EC50) on GPCR GPR40 (human) was 2 nM.
`CC#C[C@@H](CC(=O)O)c1ccc(NC(=O)C(=O)Nc2cc(C(F)(F)F)ccc2C)cc1` [Example 3, (S)-3-{4-[(2-methyl-5-trifluoromethylphenylaminooxalyl)amino]phenyl}hex-4-ynoic acid]: the “S1P1 receptor activation, % activation” value in the assay with human S1P1 receptor is recorded as 1%. For the same compound, the EC50 on GPCR GPR40 (human) came to 4 nM.
In the same order, the values of `CC#C[C@@H](CC(=O)O)c1ccc(NC(=O)C(=O)Nc2cccc(C(C)C)c2)cc1` [Example 4, (S)-3-{4-[(3-isopropylphenylaminooxalyl)amino]phenyl}hex-4-ynoic acid] are 0% and 7 nM.
In the same order, the values of `CC#C[C@@H](CC(=O)O)c1ccc(NC(=O)C(=O)Nc2cc(C(F)(F)F)ccc2Cl)cc1` [Example 5, (S)-3-{4-[(2-chloro-5-trifluoromethylphenylaminooxalyl)amino]phenyl}hex-4-ynoic acid] are 0% and 2 nM.
Take `CC#C[C@H](CC(=O)O)c1ccc(NC(=O)C(=O)Nc2cc(C(F)(F)F)ccc2C(F)(F)F)cc1` [compound 6, (R)-3-{4-[(2,5-bis(trifluoromethyl)phenylaminooxalyl)amino]phenyl}hex-4-ynoic acid, reference compound]: the EC50 at GPCR GPR40 (human) is 734 nM.
Still for that read-out and setting: the figure for `CC#C[C@H](CC(=O)O)c1ccc(NC(=O)C(=O)Nc2cccc(C(C)(C)C)c2)cc1` [compound 7, (R)-3-{4-[(3-tert-butylphenylaminooxalyl)amino]phenyl}hex-4-ynoic acid, reference compound] is 1550 nM.
Consider `CC#C[C@H](CC(=O)O)c1ccc(NC(=O)C(=O)Nc2cc(C(F)(F)F)ccc2C)cc1` [compound 8, (R)-3-{4-[(2-methyl-5-trifluoromethylphenylaminooxalyl)amino]phenyl}hex-4-ynoic acid, reference compound], for which, on GPCR GPR40 (human), the half-maximal effective concentration (EC50) was determined as 1780 nM.
Consider `CC#C[C@H](CC(=O)O)c1ccc(NC(=O)C(=O)Nc2cccc(C(C)C)c2)cc1` [compound 9, (R)-3-{4-[(3-isopropylphenylaminooxalyl)amino]phenyl}hex-4-ynoic acid, reference compound], for which the EC50 on GPCR GPR40 (human) was 2070 nM.
Still for that read-out and setting: with `CC#C[C@H](CC(=O)O)c1ccc(NC(=O)C(=O)Nc2cc(C(F)(F)F)ccc2Cl)cc1` [compound 10, (R)-3-{4-[(2-chloro-5-trifluoromethylphenylaminooxalyl)amino]phenyl}hex-4-ynoic acid, reference compound] the figure was 2290 nM.

As a reminder, the EC50 is the midpoint of the concentration-response curve.
